According to ChEMBL document CHEMBL1201862, “PubChem BioAssay data set” (2004):
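All cell lines were grown in 96-well plates and treated with compound for 48 hours. Abbreviation: GI50, concentration required for 50% inhibition of growth.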 Active and inactive are the calls of the source. Rule as the data show it: active = GI50 up to about 1.1 µM and inactive = higher.

Legend:
Experiment in all cases: NCI anticancer screen, dose series, 48 h
[1] = system: Hs-578T
[2] = system: SF-539
[3] = system: OVCAR-8
[4] = system: SK-MEL-28
[5] = system: NCI/ADR-RES
[6] = system: ACHN
[7] = system: HOP-92
[8] = system: SNB-75
[9] = system: 786-0
[10] = system: NCI-H226
[11] = system: T47D
[12] = system: NCI-H460
[13] = system: RPMI-8226
[14] = system: EKVX
[15] = system: MDA-MB-435
[16] = system: UACC-62
[17] = system: SW-620
[18] = system: SR
[19] = system: SNB-19
[20] = system: MDA-N

Measured: GI50

Oc1ccc(-c2cc(-c3cc(-c4ccc(O)cc4)no3)on2)cc1
inactive: [1] > 100 µM | [2] 4.13 µM | [3] > 100 µM | [4] > 100 µM | [5] > 100 µM | [6] 2.81 µM | [7] > 100 µM | [8] > 52.8 µM | [9] > 100 µM | [10] > 75.9 µM | [11] 33.1 µM | [12] 41.6 µM | [13] 3.52 µM | [14] 26.5 µM | [15] > 100 µM | [16] 1.16 µM | [17] > 30.3 µM | [18] 19.1 µM | [19] > 100 µM | [20] 36.9 µM

CN(CCN)[C@H](CSSC[C@@H](c1ccccc1O)N(C)CCN)c1ccccc1O
inactive: [1] 20.4 µM | [2] 15.1 µM | [3] 9.04 µM | [4] 14.3 µM | [5] 6.1 µM | [6] 10.1 µM | [7] 17.7 µM | [8] 14.7 µM | [9] 7.57 µM | [10] 11.7 µM | [11] 26.1 µM | [12] 4.98 µM | [13] 12.9 µM | [14] 11.5 µM | [15] 18 µM | [16] 10 µM | [17] 15.7 µM | [18] 2.87 µM | [19] 12.1 µM | [20] 11.9 µM

Cc1ccc2c(c1)C(C1Cc3cccc(C)c3C1=O)OC2=O (stereo not drawn)
inactive: [1] > 100 µM | [2] > 100 µM | [3] > 100 µM | [4] > 100 µM | [5] > 100 µM | [6] > 100 µM | [7] > 100 µM | [8] 81.5 µM | [9] > 100 µM | [10] 72.9 µM | [11] > 100 µM | [12] > 100 µM | [13] 30.3 µM | [14] 67.6 µM | [15] 47.5 µM | [16] 94.6 µM | [17] > 100 µM | [18] 60.8 µM | [19] > 100 µM | [20] > 100 µM

COc1cccc(CC(=O)N2CCN(CCCc3ccccc3)CC2)c1
inactive: [1] > 100 µM | [2] > 100 µM | [3] 53 µM | [4] > 100 µM | [5] 27.9 µM | [6] 83.8 µM | [7] 25.2 µM | [9] > 100 µM | [10] > 100 µM | [11] 22.2 µM | [12] > 100 µM | [13] 43.6 µM | [14] 59.6 µM | [15] 70.6 µM | [16] > 100 µM | [17] > 100 µM | [18] 42.1 µM | [19] > 100 µM | [20] 90.8 µM

CCN(CC)/[N+]([O-])=N/OCOC
inactive: [1] > 100 µM | [2] > 100 µM | [3] > 100 µM | [4] > 100 µM | [5] > 100 µM | [6] > 100 µM | [7] > 100 µM | [8] > 100 µM | [9] > 100 µM | [10] > 100 µM | [11] > 100 µM | [12] > 100 µM | [13] > 100 µM | [14] > 100 µM | [15] > 100 µM | [16] > 100 µM | [17] > 100 µM | [18] > 100 µM | [19] > 100 µM | [20] > 100 µM

CN(C)c1ccc(/N=N\c2cccc3ncccc23)cc1
inactive: [1] 44.7 µM | [2] > 100 µM | [3] > 100 µM | [4] > 100 µM | [5] 49 µM | [6] 35.6 µM | [7] 36.9 µM | [8] 36.6 µM | [9] > 80.4 µM | [10] > 72.3 µM | [11] 1.89 µM | [12] 26.6 µM | [13] 18.1 µM | [14] 11.7 µM | [15] 29.4 µM | [16] 97.5 µM | [17] 62.2 µM | [18] 55 µM | [19] > 58.1 µM | [20] 42 µM

Cc1cccc(/C=N/NC(=S)Nc2ccccc2)n1
inactive: [1] 20.1 µM | [2] 2.89 µM | [3] 2.43 µM | [4] 12.2 µM | [5] 2.88 µM | [6] 2.6 µM | [7] 5.15 µM | [8] 3.67 µM | [9] 2.27 µM | [10] 6.37 µM | [11] 2.84 µM | [12] 1.57 µM | [13] 3.48 µM | [14] 5.97 µM | [15] 7.6 µM | [16] 3.68 µM | [17] 5.25 µM | [18] 16.6 µM | [19] 11.9 µM | [20] 4 µM

Cc1ccc(-c2c3c(n(C4OC(CO)C(O)C(O)C4O)c(=S)c2C#N)CC(C)(C)CC3=O)cc1 (stereo not drawn)
inactive: [1] 70.6 µM | [2] 39.6 µM | [3] 71.9 µM | [4] 52.2 µM | [5] > 100 µM | [6] 65.5 µM | [7] 68.7 µM | [8] 49.1 µM | [9] 47.4 µM | [10] 48.6 µM | [11] 34.4 µM | [12] 52.2 µM | [13] 32.7 µM | [15] 65.2 µM | [16] 46.5 µM | [17] > 100 µM | [18] 37 µM | [19] > 100 µM | [20] 46 µM

Cc1ccc(CNNC(=O)c2cc[n+]([BH2-]C#N)cc2)cc1
inactive: [1] 48.5 µM | [2] > 100 µM | [3] > 100 µM | [4] > 100 µM | [5] > 100 µM | [6] 11.3 µM | [7] > 100 µM | [8] 72.6 µM | [9] > 100 µM | [10] > 100 µM | [11] > 100 µM | [12] > 100 µM | [13] > 100 µM | [14] 87.7 µM | [15] > 100 µM | [16] 17.1 µM | [17] > 100 µM | [18] > 100 µM | [19] > 100 µM | [20] > 100 µM

Oc1cccc2ccc(SSc3ccc4cccc(O)c4n3)nc12
inactive: [1] 31.4 µM | [2] 19.8 µM | [3] 19.1 µM | [4] 20.7 µM | [5] 26.1 µM | [6] 15.1 µM | [7] 23 µM | [8] 14.7 µM | [9] 18.2 µM | [10] > 100 µM | [11] 13.2 µM | [12] 19.3 µM | [13] 26.1 µM | [14] 29.3 µM | [15] 19 µM | [16] 17.4 µM | [17] 25.4 µM | [18] 23.9 µM | [19] > 100 µM | [20] 17.5 µM
